ChEMBL document CHEMBL5236600, “Identification of a Novel Potent CYP4Z1 Inhibitor Attenuating the Stemness of Breast Cancer Cells through Lead Optimization” (J Med Chem, 2022)
Blank lines part the entries; values can stand above or below the compound they belong to. Calls of active or inactive are those of the source. The rule behind the calls is not given here.

Experiments:
[1] = system: MDA-MB-231; experiment: Antitumor activity against human MDA-MB-231 cells implanted in BALB/c mouse assessed as change in tumor weight administered drug pretreated cells subcutaneously and observed after 2 weeks; type: functional, cell-based; details: route sc
[2] = system: MDA-MB-231; experiment: Inhibition of cell stemness in human MDA-MB-231 cells assessed as reduction in ALDH1A1 expression at 0.8 to 51.2 uM by western blot analysis; type: functional, cell-based; details: dose 0.8-51.2 µM
[3] = system: MDA-MB-231; experiment: Antitumor activity against human MDA-MB-231 cells implanted in BALB/c mouse assessed as decrease in OCT4 expression administered drug pretreated cells subcutaneously and observed after 2 weeks by immunohistochemistry; type: functional, cell-based; details: route sc
[4] = system: MDA-MB-231; experiment: Inhibition of cell stemness in human MDA-MB-231 cells assessed as reduction in SOX2 expression at 0.8 to 51.2 uM by western blot analysis; type: functional, cell-based; details: dose 0.8-51.2 µM
[5] = system: MDA-MB-231; experiment: Antiproliferative activity against human MDA-MB-231 cells assessed as decrease in spheroid number at 3.2 to 51.2 uM incubated for 10 days; type: functional, cell-based; details: dose 3.2-51.2 µM, time 10.0 day
[6] = system: MCF7; experiment: Inhibition of cell stemness in human MCF7 cells assessed as reduction in ALDH1A1 expression at 0.8 to 51.2 uM by western blot analysis; type: functional, cell-based; details: dose 0.8-51.2 µM
[7] = system: MDA-MB-231; experiment: Antiproliferative activity against human MDA-MB-231 cells assessed as decrease in spheroid size at 3.2 to 51.2 uM incubated for 10 days; type: functional, cell-based; details: dose 3.2-51.2 µM, time 10.0 day
[8] = system: MCF7; experiment: Inhibition of cell stemness in human MCF7 cells assessed as reduction in SOX2 expression at 0.8 to 51.2 uM by western blot analysis; type: functional, cell-based; details: dose 0.8-51.2 µM
[9] = system: MCF7; experiment: Inhibition of cell invasion of human MCF7 cells at 0.8 to 51.2 uM incubated for 48 hrs by transwell invasion assay; type: functional, cell-based; details: dose 0.8-51.2 µM
[10] = system: MDA-MB-231; experiment: Inhibition of cell invasion of human MDA-MB-231 cells at 0.8 to 51.2 uM incubated for 24 hrs by transwell invasion assay; type: functional, cell-based; details: dose 0.8-51.2 µM
[11] = system: MCF7; experiment: Antiproliferative activity against human MCF7 cells assessed as decrease in CD44+/CD24- cell population at 0.8 to 51.2 uM incubated for 30 mins by flow cytometry analysis; type: functional, cell-based; details: dose 0.8-51.2 µM
[12] = system: MCF7; experiment: Antiproliferative activity against human MCF7 cells assessed as decrease in spheroid size at 3.2 to 51.2 uM incubated for 10 days; type: functional, cell-based; details: dose 3.2-51.2 µM, time 10.0 day
[13] = system: MDA-MB-231; experiment: Antiproliferative activity against human MDA-MB-231 cells assessed as cell growth inhibition incubated for 72 hrs by MTT assay; type: functional, cell-based; details: MDA-MB-231, 72 h
[14] = system: MDA-MB-231; experiment: Antitumor activity against human MDA-MB-231 cells implanted in BALB/c mouse assessed as reduction in tumor formation ratio administered drug pretreated cells subcutaneously and observed after 2 weeks; type: functional, cell-based; details: route sc
[15] = Stability in mouse liver microsomes assessed as half life at 1 uM incubated upto 60 mins in presence of NADPH by LC-MS/MS analysis; type: ADME, Microsome
[16] = system: MCF7; experiment: Antitumor activity against human MCF7 cells implanted in BALB/c mouse assessed as decrease in ALDH1A1 expression administered drug pretreated cells subcutaneously and observed after 2 weeks by immunohistochemistry; type: functional, cell-based; details: route sc
[17] = system: MDA-MB-231; experiment: Inhibition of cell stemness in human MDA-MB-231 cells assessed as reduction in OCT3 expression at 0.8 to 51.2 uM by western blot analysis; type: functional, cell-based; details: dose 0.8-51.2 µM
[18] = system: MCF7; experiment: Antitumor activity against human MCF7 cells implanted in BALB/c mouse assessed as change in stem cell frequency administered drug pretreated cells subcutaneously and observed after 2 weeks by colligation test; type: functional, cell-based; details: route sc
[19] = system: MCF7; experiment: Antitumor activity against human MCF7 cells implanted in BALB/c mouse assessed as decrease in Ki67 expression administered drug pretreated cells subcutaneously and observed after 2 weeks by immunohistochemistry; type: functional, cell-based; details: route sc
[20] = system: MCF7; experiment: Antitumor activity against human MCF7 cells implanted in BALB/c mouse assessed as reduction in tumor formation ratio administered drug pretreated cells subcutaneously and observed after 2 weeks; type: functional, cell-based; details: route sc
[21] = Stability in mouse plasma assessed as half life at 40 uM incubated upto 5 hrs by LC-MS/MS analysis; type: ADME, cell-free
[22] = system: MDA-MB-231; experiment: Inhibition of cell stemness in human MDA-MB-231 cells assessed as reduction in OCT4 expression at 0.8 to 51.2 uM by western blot analysis; type: functional, cell-based; details: dose 0.8-51.2 µM
[23] = biological target: Cytochrome P450 3A4 (Homo sapiens, UniProt P08684); experiment: Inhibition of human recombinant CYP3A4 using Luciferin-IPA as substrate incubated for 30 mins in presence of NADPH by luminescence based assay; type: ADME
Chain of Cytochrome P450 3A4 (P08684 whole entry): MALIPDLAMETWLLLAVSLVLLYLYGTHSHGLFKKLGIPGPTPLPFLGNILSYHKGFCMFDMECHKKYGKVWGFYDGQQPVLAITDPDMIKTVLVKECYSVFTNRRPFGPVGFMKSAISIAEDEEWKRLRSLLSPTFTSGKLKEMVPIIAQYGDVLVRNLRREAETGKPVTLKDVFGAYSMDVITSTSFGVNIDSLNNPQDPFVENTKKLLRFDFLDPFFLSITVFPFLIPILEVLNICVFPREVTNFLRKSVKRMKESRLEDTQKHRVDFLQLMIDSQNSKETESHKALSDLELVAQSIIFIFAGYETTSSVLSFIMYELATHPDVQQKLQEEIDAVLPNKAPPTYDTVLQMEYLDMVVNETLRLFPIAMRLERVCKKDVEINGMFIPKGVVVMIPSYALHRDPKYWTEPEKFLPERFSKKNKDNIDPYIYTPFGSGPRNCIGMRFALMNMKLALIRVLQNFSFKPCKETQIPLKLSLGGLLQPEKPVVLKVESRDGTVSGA

[24] = system: MDA-MB-231; experiment: Inhibition of cell stemness in human MDA-MB-231 cells assessed as reduction in P-gP expression at 0.8 to 51.2 uM by western blot analysis; type: functional, cell-based; details: dose 0.8-51.2 µM
[25] = system: MDA-MB-231; experiment: Inhibition of cell stemness in human MDA-MB-231 cells assessed as reduction in Nanog expression at 0.8 to 51.2 uM by western blot analysis; type: functional, cell-based; details: dose 0.8-51.2 µM
[26] = system: MDA-MB-231; experiment: Antitumor activity against human MDA-MB-231 cells implanted in BALB/c mouse assessed as reduction in stem cell frequency administered drug pretreated cells subcutaneously and observed after 2 weeks; type: functional, cell-based; details: route sc
[27] = system: MDA-MB-231; experiment: Antitumor activity against human MDA-MB-231 cells implanted in BALB/c mouse assessed as change in stem cell frequency administered drug pretreated cells subcutaneously and observed after 2 weeks by colligation test; type: functional, cell-based; details: route sc
[28] = system: MCF7; experiment: Inhibition of cell stemness in human MCF7 cells assessed as reduction in Nanog expression at 0.8 to 51.2 uM by western blot analysis; type: functional, cell-based; details: dose 0.8-51.2 µM
[29] = system: MDA-MB-231; experiment: Antitumor activity against human MDA-MB-231 cells implanted in BALB/c mouse assessed as decrease in ALDH1A1 expression administered drug pretreated cells subcutaneously and observed after 2 weeks by immunohistochemistry; type: functional, cell-based; details: route sc
[30] = system: MCF7; experiment: Inhibition of cell stemness in human MCF7 cells assessed as reduction in OCT3 expression at 0.8 to 51.2 uM by western blot analysis; type: functional, cell-based; details: dose 0.8-51.2 µM
[31] = biological target: Cytochrome P450 2D6 (Homo sapiens, UniProt P10635); experiment: Inhibition of human recombinant CYP2D6 using Luciferin-ME EGE as substrate incubated for 30 mins in presence of NADPH by luminescence based assay; type: ADME
Chain of Cytochrome P450 2D6 (P10635 whole entry): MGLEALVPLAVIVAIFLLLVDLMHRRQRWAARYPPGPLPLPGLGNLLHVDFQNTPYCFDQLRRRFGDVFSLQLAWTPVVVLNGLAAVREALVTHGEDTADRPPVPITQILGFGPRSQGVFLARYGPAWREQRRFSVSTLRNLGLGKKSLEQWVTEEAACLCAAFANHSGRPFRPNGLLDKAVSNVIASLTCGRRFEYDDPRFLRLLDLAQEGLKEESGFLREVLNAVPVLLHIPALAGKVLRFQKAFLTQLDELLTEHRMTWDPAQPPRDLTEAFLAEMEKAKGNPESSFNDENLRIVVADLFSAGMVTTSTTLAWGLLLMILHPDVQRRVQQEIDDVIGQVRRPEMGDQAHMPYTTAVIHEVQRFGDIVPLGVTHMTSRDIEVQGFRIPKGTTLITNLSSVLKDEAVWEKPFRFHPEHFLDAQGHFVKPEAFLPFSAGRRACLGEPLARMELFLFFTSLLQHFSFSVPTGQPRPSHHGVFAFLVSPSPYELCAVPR

[32] = system: MCF7; experiment: Antitumor activity against human MCF7 cells implanted in BALB/c mouse assessed as decrease in OCT4 expression administered drug pretreated cells subcutaneously and observed after 2 weeks by immunohistochemistry; type: functional, cell-based; details: route sc
[33] = system: MCF7; experiment: Antiproliferative activity against human MCF7 cells assessed as cell growth inhibition incubated for 72 hrs by MTT assay; type: functional, cell-based; details: MCF7, 72 h
[34] = system: MCF7; experiment: Antiproliferative activity against human MCF7 cells assessed as decrease in spheroid number at 3.2 to 51.2 uM incubated for 10 days; type: functional, cell-based; details: dose 3.2-51.2 µM, time 10.0 day
[35] = system: MDA-MB-231; experiment: Antitumor activity against human MDA-MB-231 cells implanted in BALB/c mouse assessed as decrease in Ki67 expression administered drug pretreated cells subcutaneously and observed after 2 weeks by immunohistochemistry; type: functional, cell-based; details: route sc
[36] = Toxicity in mouse assessed as body weight loss at 2000 mg/kg,po administered for 7 days; type: organism-based; details: in vivo, 168 h, time 7 day
[37] = system: MCF7; experiment: Antitumor activity against human MCF7 cells implanted in BALB/c mouse assessed as reduction in stem cell frequency administered drug pretreated cells subcutaneously and observed after 2 weeks; type: functional, cell-based; details: route sc
[38] = system: MDA-MB-231; experiment: Inhibition of cell migration of human MDA-MB-231 cells at 0.8 to 51.2 uM incubated for 24 hrs by wound healing assay; type: functional, cell-based; details: dose 0.8-51.2 µM
[39] = system: MCF7; experiment: Inhibition of cell stemness in human MCF7 cells assessed as reduction in P-gP expression at 0.8 to 51.2 uM by western blot analysis; type: functional, cell-based; details: dose 0.8-51.2 µM
[40] = system: MDA-MB-231; experiment: Antiproliferative activity against human MDA-MB-231 cells assessed as decrease in CD44+/CD24- cell population at 0.8 to 51.2 uM incubated for 30 mins by flow cytometry analysis; type: functional, cell-based; details: dose 0.8-51.2 µM
[41] = system: MCF7; experiment: Inhibition of cell migration of human MCF7 cells at 0.8 to 51.2 uM incubated for 48 hrs by wound healing assay; type: functional, cell-based; details: dose 0.8-51.2 µM
[42] = biological target: Cytochrome P450 2C9 (Homo sapiens, UniProt P11712); experiment: Inhibition of human recombinant CYP2C9 using Luciferin CEE as substrate incubated for 30 mins in presence of NADPH by luminescence based assay; type: ADME
Chain of Cytochrome P450 2C9 (P11712 whole entry): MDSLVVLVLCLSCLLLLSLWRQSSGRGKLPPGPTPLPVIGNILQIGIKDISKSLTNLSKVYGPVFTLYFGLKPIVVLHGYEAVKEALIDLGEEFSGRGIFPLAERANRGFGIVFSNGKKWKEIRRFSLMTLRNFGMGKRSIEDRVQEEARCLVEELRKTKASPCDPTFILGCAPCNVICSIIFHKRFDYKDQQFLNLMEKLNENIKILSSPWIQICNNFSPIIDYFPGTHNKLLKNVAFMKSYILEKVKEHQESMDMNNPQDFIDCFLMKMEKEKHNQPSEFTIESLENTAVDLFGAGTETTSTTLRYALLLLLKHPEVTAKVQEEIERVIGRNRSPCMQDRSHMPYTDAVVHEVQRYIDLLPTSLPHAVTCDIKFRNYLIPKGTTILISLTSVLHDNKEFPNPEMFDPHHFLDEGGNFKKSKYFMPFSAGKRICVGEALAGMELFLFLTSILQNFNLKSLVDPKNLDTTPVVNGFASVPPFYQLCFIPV

[43] = system: MCF7; experiment: Inhibition of cell stemness in human MCF7 cells assessed as reduction in OCT4 expression at 0.8 to 51.2 uM by western blot analysis; type: functional, cell-based; details: dose 0.8-51.2 µM
[44] = system: MCF7; experiment: Antitumor activity against human MCF7 cells implanted in BALB/c mouse assessed as change in tumor weight administered drug pretreated cells subcutaneously and observed after 2 weeks; type: functional, cell-based; details: route sc
[45] = biological target: T1, Cytochrome P450 4Z1 (Homo sapiens, UniProt Q86W10); experiment: Inhibition of CYP4Z1 in human HEK293T cells using Luciferin-BE as substrate at 10 uM incubated for 30 mins in presence of NADPH by luminescence based assay relative to control; type: ADME, cell-based; details: HEK-293T, 0.5 h
T1 sequence (Q86W10 whole entry): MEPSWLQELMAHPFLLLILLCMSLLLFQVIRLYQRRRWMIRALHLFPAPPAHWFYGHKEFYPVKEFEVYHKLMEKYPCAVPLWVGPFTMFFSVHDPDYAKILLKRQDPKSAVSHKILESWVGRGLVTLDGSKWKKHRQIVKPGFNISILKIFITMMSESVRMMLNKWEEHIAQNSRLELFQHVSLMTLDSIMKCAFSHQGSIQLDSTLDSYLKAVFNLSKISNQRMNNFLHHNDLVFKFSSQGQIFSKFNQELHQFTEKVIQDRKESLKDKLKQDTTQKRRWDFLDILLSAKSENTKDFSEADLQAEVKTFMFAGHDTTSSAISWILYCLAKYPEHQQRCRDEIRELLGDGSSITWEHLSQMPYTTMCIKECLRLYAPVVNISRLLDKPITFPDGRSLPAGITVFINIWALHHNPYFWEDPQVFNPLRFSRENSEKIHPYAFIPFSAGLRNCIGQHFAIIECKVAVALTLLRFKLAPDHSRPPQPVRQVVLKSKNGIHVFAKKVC

[46] = biological target: T1, Cytochrome P450 4Z1; experiment: Inhibition of CYP4Z1 in human HEK293T cells using Luciferin-BE as substrate at 1 uM incubated for 30 mins in presence of NADPH by luminescence based assay relative to control; type: ADME, cell-based; details: HEK-293T, 0.5 h
[47] = biological target: T1, Cytochrome P450 4Z1; experiment: Inhibition of CYP4Z1 in human HEK293T cells using Luciferin-BE as substrate incubated for 30 mins in presence of NADPH by luminescence based assay; type: ADME, cell-based

inhibition at 10 µM [45]: 54.3%
inhibition at 1 µM [46]: 36.5%
SMILES: O=C(O)Cc1ccc(N/C=N/O)cc1

inhibition at 10 µM [45]: 72.8%
inhibition at 1 µM [46]: 33.6%
SMILES: CCc1ccc(N/C=N/O)cc1

The remaining lines, values behind:

SMILES: CCOC(=O)CCCc1ccc(N/C=N/O)cc1
Activity [1]: inactive
inhibition [2]: Dose-Dependent Effect
Activity [3]: Active
inhibition [4]: Dose-Dependent Effect
Activity [5]: Dose-Dependent Effect
inhibition [6]: Dose-Dependent Effect
Activity [7]: Dose-Dependent Effect
inhibition [8]: Dose-Dependent Effect
inhibition [9]: Active
inhibition [10]: Active
Activity [11]: Dose-Dependent Effect
Activity [12]: Dose-Dependent Effect
IC50 [13]: 483 nM
Activity [14]: Active
half-life at 1 µM [15]: 12.8 min
Activity [16]: Active
inhibition [17]: Dose-Dependent Effect
Activity [18]: Active
Activity [19]: Active
Activity [20]: Active
half-life at 40 µM [21]: 24.6 min
inhibition [22]: Dose-Dependent Effect
IC50 [23]: > 10000 nM
inhibition [24]: Dose-Dependent Effect
inhibition [25]: Dose-Dependent Effect
Activity [26]: Active
Activity [27]: Active
inhibition [28]: Dose-Dependent Effect
Activity [29]: Active
inhibition [30]: Dose-Dependent Effect
IC50 [31]: > 10000 nM
Activity [32]: Active
IC50 [33]: 483 nM
Activity [34]: Dose-Dependent Effect
Activity [35]: Active
Activity [36]: Non-Toxic
Activity [37]: Active
inhibition [38]: Dose-Dependent Effect
inhibition [39]: Dose-Dependent Effect
Activity [40]: Dose-Dependent Effect
inhibition [41]: Dose-Dependent Effect
IC50 [42]: > 10000 nM
inhibition [43]: Dose-Dependent Effect
Activity [44]: inactive

SMILES: CCCCc1ccc(N/C=N/O)cc1
inhibition at 10 µM [45]: 84.3%
inhibition at 1 µM [46]: 54.2%

SMILES: CCOC(=O)Cc1ccc(N/C=N/O)cc1
IC50 [47]: 89.7 nM
inhibition at 10 µM [45]: 89.1%
inhibition at 1 µM [46]: 80.4%
